“And” between values parts separate entries of the source, which are not always exact repeats. Equal values may be shown once. “Also recorded” adds a separate entry of the source.
Columns and labels:
[1] = oral tofacitinib; cited from earlier work
[2] = tested on: patients with chronic, refractory, moderate to severe alopecia areata; test: Retrospective clinical study of orally administered and sublingual tofacitinib, 7-point assessment scale of hair regrowth; type: in vivo, human; conditions: for Increase in hair growth of >+1, % of patients / Increase in hair growth of >+1, number of patients / Mean score on 7-point assessment scale / Patients who achieved +3 (complete response, CR) / Median score on 7-point assessment scale: all patients
[3] = tested on: patients with alopecia areata; conditions: oral tofacitinib 5 mg twice daily for 3 months; cited from earlier work
[4] = dose range 1-20 mg, oral or sublingual
[5] = of 71 patients on immunosuppressive co-therapy at start
[6] = oral or sublingual, n = 127, listed as Tofacitinib
[7] = orally administered, 3 months, n = 39, mean dose 4.19 mg
[8] = orally administered, 6 months, n = 36, mean dose 4.96 mg
[9] = orally administered, 9 months, n = 25, mean dose 5.58 mg
[10] = orally administered, 12 months, n = 21, mean dose 5.63 mg
[11] = orally administered, 15 months, n = 16, mean dose 6.90 mg
[12] = orally administered, 18 months, n = 7, mean dose 6.07 mg
[13] = prolonged disease duration >10 years, n = 38
[14] = sublingual, 3 months, n = 88, mean dose 3.73 mg
[15] = sublingual, 6 months, n = 74, mean dose 4.48 mg
[16] = sublingual, 9 months, n = 53, mean dose 4.71 mg
[17] = sublingual, 12 months, n = 34, mean dose 6.25 mg
[18] = sublingual, 15 months, n = 15, mean dose 6.81 mg
[19] = sublingual, 18 months, n = 3, mean dose 5.00 mg
[20] = tofacitinib monotherapy, n = 56

C[C@@H]1CCN(C(=O)CC#N)C[C@@H]1N(C)c1ncnc2[nH]ccc12 [tofacitinib]
Reported elimination half-life [1]: 3 h | Late responders with CR ([2]; 31 late responders, 6 months): 2 | Late responders with a score of 0 ([2]; 31 late responders, 6 months): 8 | Late responders with a score of >+1 ([2]; 31 late responders, 6 months): 17 | Late responders in CR ([2]; 31 late responders, 9 months): 4 | Late responders with a score of >+1 ([2]; 31 late responders, 9 months): 20 | Late responders who had achieved CR ([2]; 31 late responders, by 15 months): 10 | Overall effect on hair loss and regrowth [2, 4]: arrested hair loss and stimulated regrowth in the overwhelming majority of patients; also recorded: highly effective | Tolerability [2, 4]: well tolerated | Patients who developed asymptomatic hepatic transaminitis leading to treatment discontinuation ([2]; later diagnosed with nonalcoholic steatohepatitis): One | Patients who discontinued all other immunosuppressive treatment after starting tofacitinib, % [2, 5]: 46% | Patients who discontinued all other immunosuppressive treatment after starting tofacitinib, number [2, 5]: Thirty-three | Early responders who achieved a +2 ([2]; of the 67 early responders): 40% | Early responders who achieved a +3 ([2]; of the 67 early responders): 22% | Patients who have remained in CR for >12 months ([2]; oral or sublingual): nine | Patients who remain in CR after six months of continued treatment ([2]; oral or sublingual): Twenty-four | Side effects ([2]; oral or sublingual): infrequent and mild | Increase in hair growth of >+1, % of patients ([2]; oral or sublingual, 3 months): 56% | Increase in hair growth of >+1, number of patients ([2]; oral or sublingual, 3 months): 71 | Mean score on 7-point assessment scale ([2]; oral or sublingual, 3 months): 0.84 and 0.8 | Patients who achieved +3 (complete response, CR) ([2]; oral or sublingual, 3 months): 12% | Median score on 7-point assessment scale ([2]; oral or sublingual, 3 months (IQR 0 to +2)): +1 (25-49% hair loss) | Mean score on 7-point assessment scale ([2]; oral or sublingual, 6 months): 1.1 | Mean score on 7-point assessment scale ([2]; oral or sublingual, 9 months): 1.1 | Increase in hair growth of >+1, % of patients ([2]; oral or sublingual, 12 months): 78% | Increase in hair growth of >+1, number of patients ([2]; oral or sublingual, 12 months): 43 | Mean score on 7-point assessment scale ([2]; oral or sublingual, 12 months): 1.66 and 1.6 | Patients who achieved +3 (complete response, CR) ([2]; oral or sublingual, 12 months): 40% | Median score on 7-point assessment scale ([2]; oral or sublingual, 12 months (IQR +1 to +3)): +2 (1-24% hair loss) | Mean score on 7-point assessment scale ([2]; oral or sublingual, 15 months): 1.9 | Increase in hair growth of >+1, % of patients ([2]; oral or sublingual, 18 months): 90% | Increase in hair growth of >+1, number of patients ([2]; oral or sublingual, 18 months): 9 | Mean score on 7-point assessment scale ([2]; oral or sublingual, 18 months): 2.33 and 2.4 | Patients who achieved +3 (complete response, CR) ([2]; oral or sublingual, 18 months): 80% | Median score on 7-point assessment scale ([2]; oral or sublingual, 18 months (IQR +3 to +3)): +3 (No hair loss (SALT 0)) | Early responders (>+1 score by 3 months of treatment), % of patients ([2]; oral or sublingual, n = 127): 53% | Early responders (>+1 score by 3 months of treatment), number of patients ([2]; oral or sublingual, n = 127): Sixty-seven | Late responders (>+1 score after 6 months of treatment), % of patients ([2]; oral or sublingual, n = 127): 24% | Late responders (>+1 score after 6 months of treatment), number of patients ([2]; oral or sublingual, n = 127): Thirty-one | Primary treatment failure (failed to respond), number of patients ([2]; oral or sublingual, n = 127): Twenty-four | Primary treatment failure, % of patients ([2]; oral or sublingual, n = 127): 19% | Relapse (at least one grade deterioration in score), number of patients ([2]; oral or sublingual, n = 127): Twenty-eight | Relapse, % of patients ([2]; oral or sublingual, n = 127): 22% | Primary treatment failure (failed to respond), number of patients [2, 6]: 24 | Relapse (at least one grade deterioration in score), number of patients [2, 6]: 28 | Score +1, number of patients [2, 7]: 7 | Score +2, number of patients [2, 7]: 8 | Score +3, % of patients [2, 7]: 18% | Score +3, number of patients [2, 7]: 7 | Total non-responders, % of patients [2, 7]: 44% | Total non-responders, number of patients [2, 7]: 17 | Total responders, % of patients [2, 7]: 56% | Total responders, number of patients [2, 7]: 22 | Score +1, number of patients [2, 8]: 4 | Score +2, number of patients [2, 8]: 7 | Score +3, % of patients [2, 8]: 27% | Score +3, number of patients [2, 8]: 10 | Total non-responders, % of patients [2, 8]: 42% | Total non-responders, number of patients [2, 8]: 15 | Total responders, % of patients [2, 8]: 58% | Total responders, number of patients [2, 8]: 21 | Score +1, number of patients [2, 9]: 3 | Score +2, number of patients [2, 9]: 4 | Score +3, % of patients [2, 9]: 48% | Score +3, number of patients [2, 9]: 12 | Total non-responders, % of patients [2, 9]: 24% | Total non-responders, number of patients [2, 9]: 6 | Total responders, % of patients [2, 9]: 76% | Total responders, number of patients [2, 9]: 19 | Score +1, number of patients [2, 10]: 1 | Score +2, number of patients [2, 10]: 5 | Score +3, % of patients [2, 10]: 52% | Score +3, number of patients [2, 10]: 11 | Total non-responders, % of patients [2, 10]: 19% | Total non-responders, number of patients [2, 10]: 4 | Total responders, % of patients [2, 10]: 81% | Total responders, number of patients [2, 10]: 17 | Score +1, number of patients [2, 11]: 1 | Score +2, number of patients [2, 11]: 2 | Score +3, % of patients [2, 11]: 56% | Score +3, number of patients [2, 11]: 9 | Total non-responders, % of patients [2, 11]: 25% | Total non-responders, number of patients [2, 11]: 4 | Total responders, % of patients [2, 11]: 75% | Total responders, number of patients [2, 11]: 12 | Score +1, number of patients [2, 12]: 0 | Score +2, number of patients [2, 12]: 1 | Score +3, % of patients [2, 12]: 71% | Score +3, number of patients [2, 12]: 5 | Total non-responders, % of patients [2, 12]: 14% | Total non-responders, number of patients [2, 12]: 1 | Total responders, % of patients [2, 12]: 86% | Total responders, number of patients [2, 12]: 6 | Secondary treatment failure, number of patients ([2]; out of 28 who experienced a relapse while on treatment): Five | Patients who achieved a CR, % ([2]; patients with AT/AU): 37% | Patients who achieved a CR, number ([2]; patients with AT/AU): 13 | Patients who achieved a response, % ([2]; patients with AT/AU): 71% | Patients who achieved a response, number ([2]; patients with AT/AU): 25 | Early responders, number of patients [2, 13]: 21 | Late responders, number of patients [2, 13]: 10 | Never responded, number of patients [2, 13]: 6 | Patients who had regrowth [2, 13]: 81.6% | Relapsed, number of patients [2, 13]: 2 | Score +1, number of patients [2, 14]: 21 | Score +2, number of patients [2, 14]: 20 | Score +3, % of patients [2, 14]: 9% | Score +3, number of patients [2, 14]: 8 | Total non-responders, % of patients [2, 14]: 46.5% | Total non-responders, number of patients [2, 14]: 41 | Total responders, % of patients [2, 14]: 53% | Total responders, number of patients [2, 14]: 49 | Score +1, number of patients [2, 15]: 18 | Score +2, number of patients [2, 15]: 17 | Score +3, % of patients [2, 15]: 20% | Score +3, number of patients [2, 15]: 15 | Total non-responders, % of patients [2, 15]: 32% | Total non-responders, number of patients [2, 15]: 24 | Total responders, % of patients [2, 15]: 68% | Total responders, number of patients [2, 15]: 50 | Score +1, number of patients [2, 16]: 13 | Score +2, number of patients [2, 16]: 12 | Score +3, % of patients [2, 16]: 26% | Score +3, number of patients [2, 16]: 14 | Total non-responders, % of patients [2, 16]: 26% | Total non-responders, number of patients [2, 16]: 14 | Total responders, % of patients [2, 16]: 74% | Total responders, number of patients [2, 16]: 39 | Score +1, number of patients [2, 17]: 8 | Score +2, number of patients [2, 17]: 11 | Score +3, % of patients [2, 17]: 32% | Score +3, number of patients [2, 17]: 11 | Total non-responders, % of patients [2, 17]: 15% | Total non-responders, number of patients [2, 17]: 5 | Total responders, % of patients [2, 17]: 85% | Total responders, number of patients [2, 17]: 29 | Score +1, number of patients [2, 18]: 3 | Score +2, number of patients [2, 18]: 5 | Score +3, % of patients [2, 18]: 40% | Score +3, number of patients [2, 18]: 6 | Total non-responders, % of patients [2, 18]: 7% | Total non-responders, number of patients [2, 18]: 1 | Total responders, % of patients [2, 18]: 93% | Total responders, number of patients [2, 18]: 14 | Score +1, number of patients [2, 19]: 0 | Score +2, number of patients [2, 19]: 0 | Score +3, % of patients [2, 19]: 100% | Score +3, number of patients [2, 19]: 3 | Total non-responders, number of patients [2, 19]: 0 | Total responders, % of patients [2, 19]: 100% | Total responders, number of patients [2, 19]: 3 | Early responders, % of patients [2, 20]: 51.7% | Early responders, number of patients [2, 20]: Twenty-nine | Late responders, % of patients [2, 20]: 19.6% | Late responders, number of patients [2, 20]: 11 | Patients who achieved a CR [2, 20]: Eighteen | Primary failures, % of patients [2, 20]: 26.7% | Primary failures, number of patients [2, 20]: 15 | Secondary failure, number of patients [2, 20]: 1 | Patients achieving a 50% or greater reduction in SALT score [3]: 32%
